ChEMBL document CHEMBL1158911, “Isolation and Structure Determination of Inostamycin, a Novel Inhibitor of Phosphatidylinositol Turnover” (J Nat Prod, 1990)
≈ marks a conversion by molar mass, not a printed value. Calls of active or inactive are those of the source. The rule behind the calls is not given here.

Tested on: A-431
Assay: Inhibition of EGF-induced [3H]inositol incorporation in to phosphatidylinositol in human A431 cells after 60 mins by liquid scintillation spectrophotometry
Format: functional, cell-based

SMILES	IC50 [µg/mL]	Activity
CCC[C@H](O)[C@@]1(CC)C[C@@H](C)[C@](O)([C@]2(C)C[C@H](C)[C@@H]([C@@H](CC)C(=O)[C@@H](C)[C@@H](O)[C@H](C)[C@H]3O[C@@](O)([C@H](CC)C(=O)O)[C@@H](C)[C@H](O)[C@H]3CC)O2)O1 [INOSTAMYCIN]	0.5 (≈ 0.713 µM)	–
CC[C@@H](C(=O)[C@@H](C)[C@@H](O)[C@@H](C)[C@H]1O[C@@H](CC(=O)OO)[C@H](C)C[C@@H]1C)[C@H]1O[C@](C)([C@]2(O)O[C@](CC)([C@@H](O)CC)C[C@H]2C)C[C@@H]1C	–	Active
CC[C@@]1([C@@H]2O[C@@H]([C@H]3O[C@@](O)(CO)[C@H](C)C[C@@H]3C)C[C@@H]2C)CC[C@H]([C@]2(C)CC[C@]3(C[C@H](O)[C@@H](C)[C@@H]([C@@H](C)[C@@H](OC)[C@H](C)C(=O)O)O3)O2)O1	–	inactive
